Reference: patent publication US12180155B2, “Crystalline forms of a cannabinoid receptor type 1 (CB1) modulator and methods of use and preparation thereof” (Anebulo Pharmaceuticals, Inc., priority 2021, dated 2024)

How the values were obtained:
Format in all cases: physicochemical
[1] = Competitive slurries of Crystalline Form I and Crystalline Form II; conditions: for conversion of equimolar Form I / Form II slurry to this form: XRPD of solids
Protocol: The relationship between Crystalline Form I and Crystalline Form II of Compound 1 was investigated via competitive slurries and solubility determination.
Equimolar amounts of the Crystalline Form I and Crystalline Form II were suspended in saturated solution of compound 1 and aged in different conditions. Slurry samples were taken at intervals, solids were filtered, dried and analyzed by XRPD. Two temperatures, 20° C. and 40° C., and two different solvent systems, heptane and a mixture of ethanol and water, were investigated.

[2] = Thermogravimetric analysis (TGA); conditions: up to 150° C.
Source text: (§1) TGA: Polymorphs according to the present disclosure may also give rise to thermal behavior different from that of the amorphous material or another polymorphic form. Thermal behavior may be measured in the laboratory by thermogravimetric analysis (TGA) which may be used to distinguish some polymorphic forms from others. In one aspect, the polymorphs as described herein may be characterized by thermogravimetric analysis.
The TGA trace of Crystalline Form I of (R)—N-(tert-butyl)-3-((4-chlorophenyl)(2-(trifluoromethyl)phenyl)methoxy)azetidine-1-carboxamide (compound 1) is reported in FIG. 3.
The TGA trace of Crystalline Form II of (R)—N-(tert-butyl)-3-((4-chlorophenyl)(2-(trifluoromethyl)phenyl)methoxy)azetidine-1-carboxamide (compound 1) is reported in FIG. 7.

[3] = Stability at solid state (XRPD re-analysis after storage)
[4] = Temperature dependent solubility in heptane (Crystal16, clear points); conditions: for temperature at which the two solubility lines intersect / relative solubility: heptane; for temperature at which the two solubility lines intersect: Form I vs Form II
Protocol: Temperature dependent solubility experiment was performed on Crystalline Form I and Crystalline Form II of Compound 1, and data was generated by Crystal16 equipment using heptane as solvent. Slurries with accurate amounts of solid in heptane were prepared, equilibrated at 20° C. for 5 minutes then heated to 70° C. at a rate of 5° C./min, and the turbidity of the suspensions were measured. Clear points of the solutions were determined and solubility vs. temperature curves (Arrhenius plots: ln[conc.] vs. 1/T [° K]) were obtained, as shown in FIG. 9.

[5] = Dynamic vapor sorption (DVS); conditions: for weight gain from dryness to 90% RH: second adsorption cycle
Source text: as §1, with “DVS:” for “TGA:”, “vapors sorption” for “thermal”, “The vapor sorption” for “Thermal”, “dynamic vapor sorption (DVS)” for “thermogravimetric analysis (TGA)”, “dynamic vapor sorption.” for “thermogravimetric analysis.”
The DVS trace of Crystalline Form I of (R)—N-(tert-butyl)-3-((4-chlorophenyl)(2-(trifluoromethyl)phenyl)methoxy)azetidine-1-carboxamide (compound 1) is reported in FIG. 4.
The DVS trace of Crystalline Form I of (R)—N-(tert-butyl)-3-((4-chlorophenyl)(2-(trifluoromethyl)phenyl)methoxy)azetidine-1-carboxamide (compound 1) is reported in FIG. 8.

Row | conversion of equimolar Form I / Form II slurry to this form ([1]; 40° C.) | weight loss [2] [%] | XRPD pattern after storage with respect to initial XRPD pattern ([3]; 5 weeks of storage at laboratory conditions) | temperature at which the two solubility lines intersect [4] | relative solubility ([4]; temperature greater than 40° C.) | relative stability ([4]; temperatures greater than 40° C.) | weight gain from dryness to 90% RH [5] [%] | conversion of equimolar Form I / Form II slurry to this form ([1]; 20° C., heptane and ethanol/water) | relative polymorph stability ([1]; room temperature (20-21° C.)) | XRPD pattern after storage with respect to initial XRPD pattern ([3]; 8 weeks of storage at laboratory conditions) | relative solubility ([4]; temperature less than 39° C.) | relative stability ([4]; temperatures less than 39° C.) | hygroscopic behavior ([5]; dryness to 90% RH) | SMILES
1 | slow but complete conversion | < 0.1 | did not show significant differences | about 39 °C | less than that of Crystalline Form II | more stable | 0.4 |  |  |  |  |  |  | CC(C)(C)NC(=O)N1CC(O[C@H](c2ccc(Cl)cc2)c2ccccc2C(F)(F)F)C1 [Crystalline Form I, (R)—N-(tert-butyl)-3-((4-chlorophenyl)(2-(trifluoromethyl)phenyl)methoxy)azetidine-1-carboxamide]
2 |  | < 0.1 |  | about 39 °C |  |  | < 0.1 | complete conversion | most stable polymorph form | did not show significant differences | less than that of Crystalline Form I | more stable | non-hygroscopic behavior | CC(C)(C)NC(=O)N1CC(O[C@H](c2ccc(Cl)cc2)c2ccccc2C(F)(F)F)C1 [Crystalline Form II, (R)—N-(tert-butyl)-3-((4-chlorophenyl)(2-(trifluoromethyl)phenyl)methoxy)azetidine-1-carboxamide]
